Source: ChEMBL document CHEMBL1201862, “PubChem BioAssay data set” (2004)
The source made the active and inactive calls.

Legend:
[1] = target: Induced myeloid leukemia cell differentiation protein Mcl-1 (Homo sapiens, UniProt Q07820); assay type: functional
[2] = target: T1, Carboxy-terminal domain RNA polymerase II polypeptide A small phosphatase 1 (Homo sapiens, UniProt Q9GZU7); test: CTDSP1 inhibitors, concentration-response, biochemical, absorbance readout, ultra-high-throughput screen actives (AID 540297); assay type: functional
T1 sequence (Q9GZU7 whole entry): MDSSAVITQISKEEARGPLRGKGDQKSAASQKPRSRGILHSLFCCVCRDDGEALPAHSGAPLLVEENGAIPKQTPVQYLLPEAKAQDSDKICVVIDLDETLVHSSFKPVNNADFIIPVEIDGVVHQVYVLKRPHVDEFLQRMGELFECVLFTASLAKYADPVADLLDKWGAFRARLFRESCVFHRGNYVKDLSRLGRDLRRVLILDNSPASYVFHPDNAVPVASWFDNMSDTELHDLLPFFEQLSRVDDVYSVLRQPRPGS

[3] = target: T2, Voltage-gated N-type calcium channel alpha-1B subunit/Amyloid beta A4 precursor protein-binding family A member 1 (Homo sapiens, UniProt Q00975+Q02410); assay type: protein assay
Ephrin type-A receptor 4 = Ephrin type-A receptor 4 (Mus musculus, UniProt Q03137); test: EphA4 ligand-binding antagonists – biochemical, colorimetric, mouse EphA4, primary screen (AID 689); assay type: functional
[4] = target: T2, Voltage-gated N-type calcium channel alpha-1B subunit/Amyloid beta A4 precursor protein-binding family A member 1; assay type: protein assay; remark: listed apart in the source
[5] = target: Beta-2 adrenergic receptor (Homo sapiens, UniProt P07550); test: Dose response for HTS for Beta-2AR agonists via FAP method from Powderset3.; assay type: functional
[6] = target: T3, Matrix metalloproteinase-14 (Homo sapiens, UniProt P50281); test: Dose Response confirmation of uHTS hits for a small molecule inhibitors of MT1-MMP activation in a fluorescence assay set 1.; assay type: functional
[7] = target: T3, Matrix metalloproteinase-14; test: SAR confirmation of uHTS hits for a small molecule inhibitors of MT1-MMP activation in a fluorescence assay.; assay type: functional
Beta-lactamase [8] = target: T4, Beta-lactamase (Salmonella choleraesuis (strain SC-B67), UniProt Q5J463); test: Epi-absorbance-based counterscreen for selective VIM-2 inhibitors: dose response biochemical high throughput screening assay to identify inhibitors of TEM-1 serine-beta-lactamase.
Beta-lactamase [9] = target: T5, Beta-lactamase (Pseudomonas aeruginosa, UniProt Q79MP6); test: […] counterscreen for selective VIM-2 inhibitors: dose response biochemical high throughput screening assay to identify inhibitors of IMP-1 metallo-beta-lactamase.
Beta-lactamase [10] = target: T5, Beta-lactamase; test: inhibition of IMP-1 beta-lactamase activity – biochemical, epi-absorbance, selectivity assay for VIM-2 inhibitor project, dose response (AID 1920)
Beta-lactamase [11] = target: T4, Beta-lactamase
Beta-lactamase [12] = target: T5, Beta-lactamase
[13] = target: E3 ubiquitin-protein ligase XIAP (Homo sapiens, UniProt P98170); test: Counter Screen using XIAP-Bir3 for Chemical Antagonists of Bir1/2 domains of IAP-family anti-apoptotic proteins. [Related pubchem assays (depositor defined):AID1018, AID1449, AID1514, AID1638, AID1749, AID1750, AID488957, AID488963]
[14] = target: T6, Small ubiquitin-related modifier 1 (Homo sapiens, UniProt P63165); test: SUMO1 protein-protein binding blockers, potency – biochemical, FRET, dose response (AID 624383); assay type: functional; settings: read-out: IC50_Mean
[15] = target: 26S proteasome non-ATPase regulatory subunit 14 (Homo sapiens, UniProt O00487); test: inhibition of proteasome subunit RPN11 – biochemical, fluorescence polarization, uHTS hits, confirmation (AID 602368); assay type: functional
[16] = target: 72 kDa type IV collagenase (Homo sapiens, UniProt P08253); test: Dose Response validation of uHTS RPN11 inhibitor hits using a MMP-2 Fluorescence assay.; assay type: functional
Albumin = Albumin (Bos taurus, UniProt P02769); test: Counterscreen for inhibitors of T-cell receptor (TCR)-CD3 interaction: Fluorescence-based biochemical high throughput dose response assay to identify inhibitors of T-cell receptor (TCR)-CD3 interaction using a TAMRA-labeled BSA probe.; assay type: functional
[17] = target: RNA-editing ligase 1, mitochondrial (Trypanosoma brucei brucei, UniProt P86926); test: inhibition of trypanosome RNA editing ligase – biochemical, fluorescence, Trypanosoma brucei, dose response (AID 1117295); assay type: functional
[18] = target: T6, Small ubiquitin-related modifier 1; test: SUMO1 protein interaction blockers, potency – biochemical, fluorescence polarization, uHTS hits, dose response (AID 624382); assay type: functional; settings: read-out: IC50_Mean
Prothrombin = Prothrombin (Bos taurus, UniProt P00735); test: thrombin protease inhibitors – biochemical, fluorescence polarization, uHTS hits, dose response (AID 602369); assay type: functional
Beta-galactosidase = Beta-galactosidase (Escherichia coli, UniProt Q8VNN2); test: Dose response counterscreen for EBI2 assay utilizing the enzyme, b-galactosidase.; assay type: functional
[19] = target: Tyrosine-protein phosphatase non-receptor type 11 (Homo sapiens, UniProt Q06124); test: PTPN11 enzyme inhibitors – biochemical, selectivity assay for STEP inhibitor project, dose response (AID 602367); assay type: functional; settings: read-out: IC50_Mean
[20] = target: Tyrosine-protein phosphatase non-receptor type 5 (Homo sapiens, UniProt P54829); test: PTPN5 enzyme inhibition – biochemical, fluorescence intensity, uHTS hits, confirmation (AID 602372); assay type: functional; settings: read-out: IC50_Mean
[21] = target: T7, Tyrosine-protein phosphatase non-receptor type 22 (Homo sapiens, UniProt Q9Y2R2); test: lymphoid phosphatase LYP inhibitors – biochemical, selectivity assay for STEP inhibitor project, dose response (AID 624241); assay type: functional
T7 sequence (Q9Y2R2 whole entry): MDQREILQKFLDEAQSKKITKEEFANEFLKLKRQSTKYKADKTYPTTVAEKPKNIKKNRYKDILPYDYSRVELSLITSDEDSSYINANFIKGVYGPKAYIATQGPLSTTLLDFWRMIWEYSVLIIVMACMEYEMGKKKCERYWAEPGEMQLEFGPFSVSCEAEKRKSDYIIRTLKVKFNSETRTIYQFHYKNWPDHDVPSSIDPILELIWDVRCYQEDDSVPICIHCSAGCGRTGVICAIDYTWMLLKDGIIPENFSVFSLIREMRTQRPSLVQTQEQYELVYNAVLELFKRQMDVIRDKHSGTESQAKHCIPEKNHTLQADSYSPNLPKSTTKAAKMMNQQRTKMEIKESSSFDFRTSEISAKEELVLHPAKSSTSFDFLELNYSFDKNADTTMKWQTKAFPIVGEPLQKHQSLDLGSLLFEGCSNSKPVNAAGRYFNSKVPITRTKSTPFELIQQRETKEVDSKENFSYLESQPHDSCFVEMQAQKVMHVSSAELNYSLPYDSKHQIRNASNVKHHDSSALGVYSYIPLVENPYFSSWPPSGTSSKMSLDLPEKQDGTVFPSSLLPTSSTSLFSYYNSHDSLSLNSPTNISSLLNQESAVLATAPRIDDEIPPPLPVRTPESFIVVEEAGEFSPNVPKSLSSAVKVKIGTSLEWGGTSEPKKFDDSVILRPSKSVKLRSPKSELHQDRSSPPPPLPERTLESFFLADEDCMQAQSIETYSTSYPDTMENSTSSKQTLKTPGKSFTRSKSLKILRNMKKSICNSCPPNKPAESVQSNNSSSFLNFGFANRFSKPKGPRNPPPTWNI

[22] = target: Dual specificity protein phosphatase 3 (Homo sapiens, UniProt P51452); test: VHR phosphatase inhibition, dose response, selectivity assay for STEP inhibitor project, biochemical (AID 602374); assay type: functional; settings: read-out: IC50_Mean
cells [23] = assay type: functional, cell-based
[24] = target: T8, Trace amine-associated receptor 1 (Homo sapiens, UniProt Q96RJ0); test: Counterscreen for agonists of the human trace amine associated receptor 1 (hTAAR1): Fluorescence-based cell-based high throughput dose response assay to identify hTAAR1 agonist that also desensitize TAAR1 receptor response.; assay type: functional
cells [25] = assay type: functional, cell-based; remark: listed apart in the source
[26] = target: T8, Trace amine-associated receptor 1; test: Fluorescence-based cell-based high throughput dose response assay to identify agonists of the human trace amine associated receptor 1 (TAAR1).; assay type: functional
Paired box protein Pax-8 = Paired box protein Pax-8 (Homo sapiens, UniProt Q06710); test: PAX8 transcriptional activity inhibition in RMG-I – RMG-I cells, luciferase, cherry-pick, dose response (AID 687027); assay type: functional, cell-based;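 also: luciferase reporter driven by Pax8 target thyroperoxidase promoter measured by SteadyGlo luminescence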
P388 = test: cells; assay type: functional; settings: Mus musculus
Cytochrome P450 2C9 = Cytochrome P450 2C9 (Homo sapiens, UniProt P11712)
P388/ADR = test: cells; assay type: functional; settings: Mus musculus
[27] = target: T9, Nuclear receptor subfamily 0 group B member 1 (Homo sapiens, UniProt P51843); assay type: functional, cell-based;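 also: HEK293T cells transfected with SF-1 and DAX-1 plus StAR promoter luciferase reporter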
T9 sequence (P51843 whole entry): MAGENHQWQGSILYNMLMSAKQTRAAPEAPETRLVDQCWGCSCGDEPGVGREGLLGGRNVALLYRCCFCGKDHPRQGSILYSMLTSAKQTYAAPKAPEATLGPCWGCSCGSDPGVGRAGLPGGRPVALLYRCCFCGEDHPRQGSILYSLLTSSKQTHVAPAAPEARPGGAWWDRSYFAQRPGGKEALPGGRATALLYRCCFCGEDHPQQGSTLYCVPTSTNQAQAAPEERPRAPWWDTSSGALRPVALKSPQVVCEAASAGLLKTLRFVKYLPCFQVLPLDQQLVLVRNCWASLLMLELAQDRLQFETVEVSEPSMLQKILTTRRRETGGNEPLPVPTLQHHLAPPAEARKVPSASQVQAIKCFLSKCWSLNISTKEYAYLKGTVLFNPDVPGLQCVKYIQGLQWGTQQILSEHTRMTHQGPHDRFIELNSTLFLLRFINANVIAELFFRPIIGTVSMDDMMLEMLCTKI

SN12K1 = test: cells; assay type: functional; settings: Homo sapiens
cells [28] = assay type: functional, cell-based; remark: listed apart in the source
[29] = Luminescence-based dose response cell-based high throughput screening assay for cytotoxic compounds using the IEC-6 intestinal epithelial cell line. [Related pubchem assays: 1858 (Summary AID.), 1825 (Counterscreen.), 1907 (Confirmation screen.)]; assay type: functional
[30] = rise of 2N DNA cells, HeLa – IC50, dose response (AID 1117349); assay type: functional, cell-based
Cytochrome P450 2D6 = Cytochrome P450 2D6 (Homo sapiens, UniProt P10635);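 also: CYP2D6 member of a cytochrome P450 panel assay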
[31] = HEK-293T viability loss after treatment – luminescence, T-cell screen hits, cytotoxicity control for TCR NF-kB inhibitor project, dose response (AID 489026); assay type: functional, cell-based;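 also: cells exposed to compound about 14 hours before the viability readout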

T5 sequence (Q79MP6 whole entry): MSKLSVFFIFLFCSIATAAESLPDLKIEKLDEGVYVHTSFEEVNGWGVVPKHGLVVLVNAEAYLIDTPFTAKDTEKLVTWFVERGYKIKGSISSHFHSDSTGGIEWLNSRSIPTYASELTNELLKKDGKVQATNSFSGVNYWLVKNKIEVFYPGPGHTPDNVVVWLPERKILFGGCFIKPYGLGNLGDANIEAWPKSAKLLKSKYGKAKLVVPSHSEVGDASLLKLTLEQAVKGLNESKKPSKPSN
T6 sequence (P63165 whole entry): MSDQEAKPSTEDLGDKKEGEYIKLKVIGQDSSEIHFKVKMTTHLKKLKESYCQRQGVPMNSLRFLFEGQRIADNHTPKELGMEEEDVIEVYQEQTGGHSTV
T4 sequence (Q5J463 whole entry): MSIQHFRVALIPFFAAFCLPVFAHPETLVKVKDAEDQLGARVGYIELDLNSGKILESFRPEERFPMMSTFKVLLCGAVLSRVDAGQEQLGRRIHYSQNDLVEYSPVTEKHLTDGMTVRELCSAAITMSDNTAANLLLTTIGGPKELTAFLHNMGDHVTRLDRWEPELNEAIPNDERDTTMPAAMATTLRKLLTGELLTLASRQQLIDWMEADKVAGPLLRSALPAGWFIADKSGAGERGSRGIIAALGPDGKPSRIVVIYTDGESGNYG
T8 sequence (Q96RJ0 whole entry): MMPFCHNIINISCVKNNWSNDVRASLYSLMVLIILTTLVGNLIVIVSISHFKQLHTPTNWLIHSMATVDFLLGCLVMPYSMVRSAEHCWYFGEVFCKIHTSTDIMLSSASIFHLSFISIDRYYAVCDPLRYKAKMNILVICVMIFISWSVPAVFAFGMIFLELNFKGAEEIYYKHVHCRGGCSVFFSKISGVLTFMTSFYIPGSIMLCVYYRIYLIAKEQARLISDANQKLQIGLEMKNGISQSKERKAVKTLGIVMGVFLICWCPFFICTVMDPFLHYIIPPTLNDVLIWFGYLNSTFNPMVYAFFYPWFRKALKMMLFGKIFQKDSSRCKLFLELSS
T2 sequence (Q00975 whole entry): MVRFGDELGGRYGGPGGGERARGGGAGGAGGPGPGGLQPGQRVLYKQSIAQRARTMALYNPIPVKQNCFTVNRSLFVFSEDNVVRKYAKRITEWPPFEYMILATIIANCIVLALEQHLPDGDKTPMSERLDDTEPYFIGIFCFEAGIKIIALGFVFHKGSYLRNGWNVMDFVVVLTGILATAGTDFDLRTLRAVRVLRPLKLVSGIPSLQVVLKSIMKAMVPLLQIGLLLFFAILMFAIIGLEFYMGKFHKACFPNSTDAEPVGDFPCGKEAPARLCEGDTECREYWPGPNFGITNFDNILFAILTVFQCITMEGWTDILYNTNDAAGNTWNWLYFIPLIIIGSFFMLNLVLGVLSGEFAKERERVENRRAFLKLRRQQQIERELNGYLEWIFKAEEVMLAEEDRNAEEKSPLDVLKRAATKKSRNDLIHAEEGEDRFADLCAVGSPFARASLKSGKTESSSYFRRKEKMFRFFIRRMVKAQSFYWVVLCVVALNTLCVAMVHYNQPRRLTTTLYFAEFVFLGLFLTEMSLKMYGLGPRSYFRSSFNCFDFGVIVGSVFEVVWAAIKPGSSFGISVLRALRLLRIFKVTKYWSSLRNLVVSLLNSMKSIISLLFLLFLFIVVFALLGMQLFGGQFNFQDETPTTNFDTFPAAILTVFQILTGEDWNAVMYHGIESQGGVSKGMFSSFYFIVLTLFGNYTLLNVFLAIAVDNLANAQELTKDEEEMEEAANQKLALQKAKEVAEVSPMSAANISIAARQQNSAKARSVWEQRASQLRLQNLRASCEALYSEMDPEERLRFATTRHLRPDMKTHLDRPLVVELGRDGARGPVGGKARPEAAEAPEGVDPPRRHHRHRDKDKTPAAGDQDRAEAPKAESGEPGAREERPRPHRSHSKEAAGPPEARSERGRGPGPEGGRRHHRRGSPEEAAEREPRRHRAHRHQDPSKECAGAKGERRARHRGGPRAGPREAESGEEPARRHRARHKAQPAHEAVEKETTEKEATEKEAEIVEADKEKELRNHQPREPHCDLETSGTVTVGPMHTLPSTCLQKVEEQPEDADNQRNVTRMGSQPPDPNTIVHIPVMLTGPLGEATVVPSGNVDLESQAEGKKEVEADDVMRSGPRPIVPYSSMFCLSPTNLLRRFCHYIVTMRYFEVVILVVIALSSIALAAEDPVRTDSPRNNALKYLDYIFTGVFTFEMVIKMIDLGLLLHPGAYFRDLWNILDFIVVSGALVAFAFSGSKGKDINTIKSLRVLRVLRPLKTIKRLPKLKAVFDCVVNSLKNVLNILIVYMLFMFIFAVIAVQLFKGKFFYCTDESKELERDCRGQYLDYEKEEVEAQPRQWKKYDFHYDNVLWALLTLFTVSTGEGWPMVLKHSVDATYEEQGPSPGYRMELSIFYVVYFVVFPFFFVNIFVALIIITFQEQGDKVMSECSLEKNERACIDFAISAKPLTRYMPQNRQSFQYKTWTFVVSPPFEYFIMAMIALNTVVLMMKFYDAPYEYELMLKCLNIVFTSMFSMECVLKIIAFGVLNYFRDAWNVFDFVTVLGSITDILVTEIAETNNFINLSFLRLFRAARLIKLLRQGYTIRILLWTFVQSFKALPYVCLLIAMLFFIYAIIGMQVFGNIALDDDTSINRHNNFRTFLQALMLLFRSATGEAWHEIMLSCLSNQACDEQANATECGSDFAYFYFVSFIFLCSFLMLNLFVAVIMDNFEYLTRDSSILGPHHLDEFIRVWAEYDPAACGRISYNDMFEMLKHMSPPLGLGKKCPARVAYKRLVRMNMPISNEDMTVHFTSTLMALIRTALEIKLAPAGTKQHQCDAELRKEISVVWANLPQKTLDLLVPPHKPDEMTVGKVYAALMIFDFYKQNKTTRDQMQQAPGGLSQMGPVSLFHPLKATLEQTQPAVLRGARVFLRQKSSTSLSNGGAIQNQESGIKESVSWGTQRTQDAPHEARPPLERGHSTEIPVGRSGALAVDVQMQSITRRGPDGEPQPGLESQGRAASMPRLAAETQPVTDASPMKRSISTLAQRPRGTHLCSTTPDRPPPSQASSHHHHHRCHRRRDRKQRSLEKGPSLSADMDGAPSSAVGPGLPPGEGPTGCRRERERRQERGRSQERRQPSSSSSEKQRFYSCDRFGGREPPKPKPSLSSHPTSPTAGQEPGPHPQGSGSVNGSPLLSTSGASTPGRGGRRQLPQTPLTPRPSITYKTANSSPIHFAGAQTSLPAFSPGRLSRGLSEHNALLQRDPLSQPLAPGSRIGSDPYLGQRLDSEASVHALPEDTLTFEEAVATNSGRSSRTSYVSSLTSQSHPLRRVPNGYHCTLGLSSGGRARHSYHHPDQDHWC
T2 sequence (Q02410 whole entry): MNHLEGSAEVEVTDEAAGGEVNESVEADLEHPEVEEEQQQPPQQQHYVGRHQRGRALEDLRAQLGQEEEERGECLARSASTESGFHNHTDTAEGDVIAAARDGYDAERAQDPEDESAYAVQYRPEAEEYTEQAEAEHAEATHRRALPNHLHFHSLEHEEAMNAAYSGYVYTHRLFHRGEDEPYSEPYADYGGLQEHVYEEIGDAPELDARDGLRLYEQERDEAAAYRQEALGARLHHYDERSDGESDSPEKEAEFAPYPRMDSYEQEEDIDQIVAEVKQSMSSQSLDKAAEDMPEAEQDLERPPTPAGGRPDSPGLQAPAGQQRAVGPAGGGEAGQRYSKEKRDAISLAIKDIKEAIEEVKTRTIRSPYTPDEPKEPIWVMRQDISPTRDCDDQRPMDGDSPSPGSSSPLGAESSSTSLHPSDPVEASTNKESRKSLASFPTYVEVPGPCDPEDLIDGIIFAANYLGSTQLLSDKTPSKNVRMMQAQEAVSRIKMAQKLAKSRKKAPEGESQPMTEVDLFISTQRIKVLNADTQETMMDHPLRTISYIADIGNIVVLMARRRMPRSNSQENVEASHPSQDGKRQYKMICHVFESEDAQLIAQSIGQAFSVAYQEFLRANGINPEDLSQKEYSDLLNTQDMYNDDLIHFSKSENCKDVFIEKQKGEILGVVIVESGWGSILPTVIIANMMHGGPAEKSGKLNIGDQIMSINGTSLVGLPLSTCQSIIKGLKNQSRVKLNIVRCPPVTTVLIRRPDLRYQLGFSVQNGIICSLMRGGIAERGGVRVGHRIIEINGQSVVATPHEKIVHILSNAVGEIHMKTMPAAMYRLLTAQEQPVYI
Chain of Paired box protein Pax-8 (Q06710 whole entry): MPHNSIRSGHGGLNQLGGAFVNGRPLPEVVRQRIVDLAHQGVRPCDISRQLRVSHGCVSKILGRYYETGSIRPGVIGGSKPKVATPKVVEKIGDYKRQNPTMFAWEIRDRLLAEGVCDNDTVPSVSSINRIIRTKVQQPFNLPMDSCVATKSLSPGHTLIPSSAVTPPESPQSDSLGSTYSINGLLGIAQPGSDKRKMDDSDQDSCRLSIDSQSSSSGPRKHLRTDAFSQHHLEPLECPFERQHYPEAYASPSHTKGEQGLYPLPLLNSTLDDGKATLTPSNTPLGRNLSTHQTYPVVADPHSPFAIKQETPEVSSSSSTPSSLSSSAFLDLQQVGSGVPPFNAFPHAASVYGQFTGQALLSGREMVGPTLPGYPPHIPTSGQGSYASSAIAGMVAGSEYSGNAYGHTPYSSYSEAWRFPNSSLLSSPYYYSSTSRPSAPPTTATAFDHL
Chain of RNA-editing ligase 1, mitochondrial (P86926 whole entry): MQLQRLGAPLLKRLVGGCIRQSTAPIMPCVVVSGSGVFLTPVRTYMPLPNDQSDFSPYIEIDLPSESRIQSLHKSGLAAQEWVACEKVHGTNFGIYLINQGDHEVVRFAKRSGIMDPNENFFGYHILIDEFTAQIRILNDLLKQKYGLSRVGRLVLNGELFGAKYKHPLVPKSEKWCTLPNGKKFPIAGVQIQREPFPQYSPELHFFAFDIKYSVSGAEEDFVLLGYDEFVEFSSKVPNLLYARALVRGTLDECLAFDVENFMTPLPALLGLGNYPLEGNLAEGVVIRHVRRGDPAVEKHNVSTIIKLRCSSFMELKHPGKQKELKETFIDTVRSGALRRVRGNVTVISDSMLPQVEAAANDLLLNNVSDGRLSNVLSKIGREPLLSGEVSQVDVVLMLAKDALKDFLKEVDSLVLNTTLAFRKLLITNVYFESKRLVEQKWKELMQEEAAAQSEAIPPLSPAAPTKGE

CSc1nc(SCCO)c2sc3nc(-c4ccco4)c4c(c3c2n1)CC(C)(C)OC4
active: IC50 [1] 1.54 µM | IC50 [2] 3.01 µM | IC50 [3] 14.3 µM | IC50 (Ephrin type-A receptor 4) 6.73 µM | EC50 [5] 1.81 µM
> 56.8 µM (not active): IC50 [4]

CCn1c(=O)c(=O)[nH]c2cc(C(=O)NC3CCCc4ccccc43)ccc21 (configuration not stated)
inactive: IC50 [6] 26.7 µM | IC50 [7] 29.1 µM

Sc1nnc(-c2ccc3ccccc3n2)n1-c1ccc2c(c1)OCCO2
inactive: IC50 (Beta-lactamase [8]) > 59.6 µM | IC50 (Beta-lactamase [9]) > 59.6 µM | IC50 (Beta-lactamase [10]) > 59.6 µM

Cn1cc(/C=C(\C(=O)O)C(C(=O)O)=C2CCCCC2)c2ccccc21
inactive: IC50 (Beta-lactamase [11]) > 59.6 µM | IC50 (Beta-lactamase [12]) > 59.6 µM

NS(=O)(=O)c1ccc(NC(=O)c2cccc(N3C(=O)c4ccccc4C3=O)c2)cc1
active: IC50 [14] 14.4 µM | IC50 [15] 40.2 µM
inactive: IC50 [13] > 20 µM | IC50 [16] > 100 µM | IC50 (Albumin) > 94.1 µM | IC50 [17] 30.8 µM | IC50 [18] > 66.6 µM | IC50 (Prothrombin) > 100 µM

CCN1CCN(C(=O)/C=C/c2ccc(C)cc2)CC1
inactive: IC50 (Beta-galactosidase) > 80 µM

O=C(O)CC/C(=N\Nc1ccc(S(=O)(=O)N2CCCC2)cc1[N+](=O)[O-])c1cccs1
active: IC50 [2] 15.5 µM | IC50 [19] 14.5 µM | IC50 [20] 19 µM | IC50 [22] 15.6 µM
inactive: IC50 [21] 34.5 µM

O=C(N[C@@H](Cc1cccnc1)C(=O)N1CCC[C@H]1C(=O)NCCc1ccccc1Cl)c1ccc(Cl)cc1Cl
active: IC50 [24] 2.94 µM | EC50 [26] 4.03 µM
inactive: IC50 (cells [23]) > 29.9 µM | EC50 (cells [25]) > 29.9 µM

COc1cc2c(c(OC)c1OC)-c1ccc(OC)c(=O)cc1[C@@H](NC(C)=O)CC2 [COLCHICINE]
inactive: GI50 (P388/ADR) 1.36 µM | IC50 [27] > 67.6 µM | IC50 (cells [28]) > 67.6 µM | IC50 [31] > 80 µM
active: AC50 (Paired box protein Pax-8) < 0.26 µM | GI50 (P388) 0.0625 µM | AC50 (Cytochrome P450 2C9) 3.16 µM | GI50 (SN12K1) < 0.0625 µM | IC50 [29] 0.0628 µM | IC50 [30] 0.0017 µM | AC50 (Cytochrome P450 2D6) 0.794 µM
